# Measurements from PubChem BioAssay AID1919017 (Molecular Pharmacology Branch, DTP, NCI, 2023).
# System: SW1271 complex spheroids with HUVEC/MSC, growth, % test/control
# Test: Anticancer human tumor SW1271 cell line growth inhibition [AhR];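 also: spheroids exposed to agents for 7 days before readout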
# Details: for IC50: curve of first compound; for viability, T/C: stronger effect = lower value
# In short: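 Spheroids combined tumor cells with HUVEC endothelial cells and human MSCs as stroma. AhR antagonists were paired with standard or investigational drugs, each dosed in half-log steps down from near clinical Cmax, or from 10 microM where Cmax was unknown.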
structure (smiles),measurement,setting,value
CCc1c2c(nc3ccc(O)cc13)-c1cc3c(c(=O)n1C2)COC(=O)[C@]3(O)CC + Cc1ccccc1N=Nc1ccc(NC(=O)c2ccnn2C)c(C)c1,IC50,second compound 0.1 µM,0.3 µM
same,IC50,second compound 0.316 µM,0.0671 µM
same,IC50,second compound 1 µM,0.21 µM
same,IC50,second compound 3.16 µM,> 0.3 µM
same,IC50,second compound 10 µM,0.0788 µM
same,"viability, T/C","second compound 0.1 µM, first compound 0.000949 µM",72.5%
same,"viability, T/C","second compound 0.1 µM, first compound 0.003 µM",99%
same,"viability, T/C","second compound 0.1 µM, first compound 0.00949 µM",64%
same,"viability, T/C","second compound 0.1 µM, first compound 0.03 µM",56.2%
same,"viability, T/C","second compound 0.1 µM, first compound 0.0949 µM",47.7%
same,"viability, T/C","second compound 0.1 µM, first compound 0.3 µM",54.7%
same,"viability, T/C","second compound 0.316 µM, first compound 0.000949 µM",90.9%
same,"viability, T/C","second compound 0.316 µM, first compound 0.003 µM",85.4%
same,"viability, T/C","second compound 0.316 µM, first compound 0.00949 µM",72.4%
same,"viability, T/C","second compound 0.316 µM, first compound 0.03 µM",54.2%
same,"viability, T/C","second compound 0.316 µM, first compound 0.0949 µM",46.4%
same,"viability, T/C","second compound 0.316 µM, first compound 0.3 µM",48.7%
same,"viability, T/C","second compound 1 µM, first compound 0.000949 µM",81.7%
same,"viability, T/C","second compound 1 µM, first compound 0.003 µM",74.3%
same,"viability, T/C","second compound 1 µM, first compound 0.00949 µM",72.5%
same,"viability, T/C","second compound 1 µM, first compound 0.03 µM",55%
same,"viability, T/C","second compound 1 µM, first compound 0.0949 µM",59.6%
same,"viability, T/C","second compound 1 µM, first compound 0.3 µM",46.5%
same,"viability, T/C","second compound 3.16 µM, first compound 0.000949 µM",79.7%
same,"viability, T/C","second compound 3.16 µM, first compound 0.003 µM",85.6%
same,"viability, T/C","second compound 3.16 µM, first compound 0.00949 µM",77.1%
same,"viability, T/C","second compound 3.16 µM, first compound 0.03 µM",63.6%
same,"viability, T/C","second compound 3.16 µM, first compound 0.0949 µM",54.3%
same,"viability, T/C","second compound 3.16 µM, first compound 0.3 µM",52.7%
same,"viability, T/C","second compound 10 µM, first compound 0.000949 µM",82%
same,"viability, T/C","second compound 10 µM, first compound 0.003 µM",82.7%
same,"viability, T/C","second compound 10 µM, first compound 0.00949 µM",83.9%
same,"viability, T/C","second compound 10 µM, first compound 0.03 µM",59.6%
same,"viability, T/C","second compound 10 µM, first compound 0.0949 µM",47.5%
same,"viability, T/C","second compound 10 µM, first compound 0.3 µM",48.9%
Nc1ccccc1NC(=O)c1ccc(CNC(=O)OCc2cccnc2)cc1 + Cc1ccccc1N=Nc1ccc(NC(=O)c2ccnn2C)c(C)c1,IC50,second compound 0.1 µM,1.86 µM
same,IC50,second compound 0.316 µM,2.77 µM
same,IC50,second compound 1 µM,2.11 µM
same,IC50,second compound 3.16 µM,1.74 µM
same,IC50,second compound 10 µM,1.46 µM
same,"viability, T/C","second compound 0.1 µM, first compound 0.0316 µM",76.7%
same,"viability, T/C","second compound 0.1 µM, first compound 0.1 µM",135%
same,"viability, T/C","second compound 0.1 µM, first compound 0.316 µM",91%
same,"viability, T/C","second compound 0.1 µM, first compound 1 µM",62.1%
same,"viability, T/C","second compound 0.1 µM, first compound 3.16 µM",41.5%
same,"viability, T/C","second compound 0.1 µM, first compound 10 µM",13.6%
same,"viability, T/C","second compound 0.316 µM, first compound 0.0316 µM",90.2%
same,"viability, T/C","second compound 0.316 µM, first compound 0.1 µM",103%
same,"viability, T/C","second compound 0.316 µM, first compound 0.316 µM",93.8%
same,"viability, T/C","second compound 0.316 µM, first compound 1 µM",86%
same,"viability, T/C","second compound 0.316 µM, first compound 3.16 µM",45.3%
same,"viability, T/C","second compound 0.316 µM, first compound 10 µM",18%
same,"viability, T/C","second compound 1 µM, first compound 0.0316 µM",101%
same,"viability, T/C","second compound 1 µM, first compound 0.1 µM",100%
same,"viability, T/C","second compound 1 µM, first compound 0.316 µM",90.7%
same,"viability, T/C","second compound 1 µM, first compound 1 µM",63.1%
same,"viability, T/C","second compound 1 µM, first compound 3.16 µM",43.7%
same,"viability, T/C","second compound 1 µM, first compound 10 µM",19.9%
same,"viability, T/C","second compound 3.16 µM, first compound 0.0316 µM",119%
same,"viability, T/C","second compound 3.16 µM, first compound 0.1 µM",120%
same,"viability, T/C","second compound 3.16 µM, first compound 0.316 µM",90.2%
same,"viability, T/C","second compound 3.16 µM, first compound 1 µM",64.3%
same,"viability, T/C","second compound 3.16 µM, first compound 3.16 µM",36.5%
same,"viability, T/C","second compound 3.16 µM, first compound 10 µM",23.7%
same,"viability, T/C","second compound 10 µM, first compound 0.0316 µM",89%
same,"viability, T/C","second compound 10 µM, first compound 0.1 µM",94%
same,"viability, T/C","second compound 10 µM, first compound 0.316 µM",86.6%
same,"viability, T/C","second compound 10 µM, first compound 1 µM",52.6%
same,"viability, T/C","second compound 10 µM, first compound 3.16 µM",41.2%
same,"viability, T/C","second compound 10 µM, first compound 10 µM",22.8%
